Laboratory results: patent publication US20130115589A1, “Pharmaceutical Composition for Treatment and Prevention of Herpes Virus Infections” (THE UNIVERSITY OF TOKYO, priority 2010, published 2013)
Like-named read-outs stand apart in the source and are kept apart here.

Assays:
HSV-1 GFP [1] = type: cell-based, Herpes simplex virus 1 (HSV-1); conditions: for HSV entry into Vero cells (relative fluorescence intensity): 30 minutes pretreatment, ML-7 20 μM, ACC 40 μM
HSV-1(F) = test: Murine corneal infection model; type: in vivo, ICR mice
Method: After the cornea of ICR mice (female/5-week-old) was slightly injured with an injection needle, a medium containing or not containing 20 μM ML-7 was instilled in the eye twice with an interval of 10 minutes. After incubation for 10 minutes, an HSV-1(F) strain was inoculated at 5×10^5 PFU/eye. The virus titer in the tear, symptoms of keratitis, and survival of mice were studied.
After the cornea of 28 ICR mice (female/5-week-old) per group was injured with an injection needle, a 20 μM medium containing or not containing ML-7 and 5×10^5 HSV-1(F) diluted in Medium199 were simultaneously instilled in their eye, followed by observation for 21 days.
After the cornea of 28 ICR mice (female/5-week-old) per group was injured with an injection needle, a 50 μM BAPTA-AM was instilled in their eye twice with an interval of 10 minutes. After incubation for 10 minutes, 5×10^5 HSV-1(F) diluted in Medium 199 was instilled in their eye, followed by observation for 21 days. In Mock-treated group, 0.2% DMSO in Medium 199 was used instead of 50 μM BAPTA-AM.

influenza virus [2] = type: cell-based
influenza virus [3] = type: cell-based; remark: listed apart in the source
HSV-1 GFP [4] = type: cell-based, Herpes simplex virus 1 (HSV-1)
NMHC-IIA = type: cell-based; conditions: Vero cells pretreated with ML-7
HSV-2 GFP = HSV-2 GFP infection of Vero cells, flow cytometry; type: cell-based, Herpes simplex virus 2; conditions: Vero cells pretreated with ML-7
NMHC-IIB = NMHC-IIB at the cell surface of HSV-1(F)-infected Cos-1 cells, biotinylation, avidin precipitation, immunoblotting; conditions: Cos-1 cells pretreated with ML-7, wild-type HSV-1(F)
phosphorylation of RLC = test: Phosphorylation of RLC in Vero cells exposed to HSV-1, immunoblotting; conditions: 20 μM ML-7, MOI=50

Structure (SMILES): Nc1nc2c(ncn2COCCO)c(=O)[nH]1 [ACC, acyclovir]
- HSV entry into Vero cells (relative fluorescence intensity) (HSV-1 GFP [1]; HSV-1 GFP MOI=1, six hours after infection): not inhibited

Structure (SMILES): CC(=O)OCOC(=O)CN(CC(=O)OCOC(C)=O)c1ccccc1OCCOc1ccccc1N(CC(=O)OCOC(C)=O)CC(=O)OCOC(C)=O [BAPTA-AM]
- survival rate (HSV-1(F); 50 μM BAPTA-AM instilled before infection, observation 21 days, vs Mock-treated group): significantly high
- mean fluorescence intensity (MFI), HSV-1 GFP (HSV-1 GFP [1]): decreased in a BAPTA-AM concentration dependent manner
- relative MFI, influenza virus (influenza virus [2]): not influenced
- influence on influenza virus infection (influenza virus [3]; Cos-1 cells, BAPTA-AM): not observed
- MFI, HSV-1 GFP (HSV-1 GFP [4]): decreased in a BAPTA-AM concentration dependent manner

Structure (SMILES): O=S(=O)(c1cccc2c(I)cccc12)N1CCCNCC1 [ML-7]
- survival rate of mice (HSV-1(F); 20 μM ML-7 instilled before infection): significant increase
- symptoms of keratitis (HSV-1(F); 20 μM ML-7 instilled before infection, after five days, vs untreated mice): significant decrease
- virus titer in the tear (HSV-1(F); 20 μM ML-7 instilled before infection, two days after virus inoculation, vs untreated mice): significant decrease
- survival rate of mice (HSV-1(F); 20 μM ML-7 instilled simultaneously with HSV-1(F), observation 21 days): further significant increase
- Infection with HSV-1 GFP (HSV-1 GFP [1]): inhibited dose-dependently
- HSV entry into Vero cells (relative fluorescence intensity) (HSV-1 GFP [1]; […]): inhibited
- increase in the concentration of NMHC-IIA in the vicinity of the cell membrane upon virus entry (NMHC-IIA): inhibited
- HSV-2 GFP infection (HSV-2 GFP): dose-independently inhibited
- concentration of NMHC-IIB in the vicinity of the cell membrane (NMHC-IIB): decreased significantly
- influenza virus infection (influenza virus [2]; Vero cells pretreated with ML-7): not influenced
- enhancement of phosphorylation of RLC by HSV-1 infection (phosphorylation of RLC): inhibits this enhancement
- influenza virus infection (influenza virus [3]; Cos-1 cells pretreated with ML-7): not influenced
- HSV-1 infection (HSV-1 GFP [4]): dose-independently inhibited
